# Measurements reported in article PMC10283052, “Intranasal delivery of mitochondrial protein humanin rescues cell death and promotes mitochondrial function in Parkinson's disease” (Theranostics, 2023).
# Columns and labels:
# [1] = test system: mtDNA-depleted (Rho^0) SH-SY5Y cells; test: Humanin induction in mtDNA-depleted Rho0 cells (PCR, western blot); assay type: cell-based, human; settings: Rho0 cells devoid of mtDNA; HN 20 μM, 24 h; conventional PCR and western blot
# Protocol: For generating SH-SY5Y Rho^0 cells depleted of mitochondrial DNA, we treated the cells with ethidium bromide (0.5 μg/ml) (Sigma-Aldrich) for 2 months as described previously. SH-SY5Y Rho^0 cells were grown in the same culture medium but supplemented with an additional 50 μg/ml of uridine and 100 μg/ml of pyruvate to support cell growth.
# (§1) Mouse brain tissue samples and cells were homogenized in radioimmunoprecipitation assay (RIPA) buffer (Cell Signaling, Danvers, MA, USA) in the presence of a protease and phosphatase inhibitor cocktail (Thermo Fisher Scientific). The samples were sonicated on ice, and the supernatant was collected after centrifugation at 4°C at 10,000 g for 5 min. The protein samples were loaded and separated using Tris-glycine SDS-PAGE. To detect the HN peptide, the proteins were separated into three layers of tricine SDS-PAGE, as previously described. The separated proteins were transferred to nitrocellulose membranes (GenDEPOT, Barker, TX, USA). The membranes were blocked for 0.5 h, followed by incubation with appropriate primary antibodies overnight at 4°C. […] The results were analyzed using the ImageJ densitometry system. […]
# The loss of mtDNA in SH-SY5Y Rho^0 cells was determined by standard PCR with three pairs of primers (Table S1), two specifically for mtDNA (mt-ND4, humanin) and one specifically for nuclear DNA (ATP5PB). […]
# [2] = test system: differentiated PC12 cells exposed to MPP^+; test: Intracellular humanin in MPP+-exposed differentiated PC12 cells, western blot; assay type: cell-based, rat; settings: HN treatment, MPP+ exposure
# Protocol: For neuronal differentiation of PC12 cells, the cells were grown in DMEM containing 1.5% horse serum, 1.5% FBS, 1% P/S, and 100 ng/mL nerve growth factor (NGF, Thermo Fisher Scientific) every 2 days. PC12 cells were differentiated for 7 days and used for subsequent experiments.
# as §1, with “4°C. The primary antibodies used were as follows: anti-tyrosine hydroxylase (Cat # P40101, Pel-Freez Biologicals), anti-HN (Cat # RA19000, Neuromics), anti-β-actin (Cat # GTX109639, GeneTex, Irvine, CA, USA), and anti-GAPDH (Cat # AM4300, Thermo Fisher Scientific).” for “4°C.”
# rat organotypic slices = test: Ex vivo PD model, organotypic brain slices with 6-OHDA; assay type: cell-based; settings: then 6-OHDA 100 μM, 2 h
# Protocol: Postnatal 5-7-day-old rat pups were used to prepare organotypic slices, as previously described, with minor modifications. The brain of anesthetized pups was aseptically removed. The brain hemispheres were separated and cut sagittally into 350-μm slices using a MacIlwain tissue chopper (MacIlwain, Mickle Laboratory, Cambridge, UK). The slices were transferred to ice-cold Gray's Balanced Salt solution containing CaCl2 (1.5 mM), NaCl (136 mM), KCl (5 mM), KH2PO4 (0.2 mM), MgCl2 (1 mM), MgSO4 (0.2 mM), NaHCO3 (0.2 mM), Na2PO4 (0.08 mM), and glucose (5.5 mM). […]
# Mouse brain tissue samples and cells were homogenized in radioimmunoprecipitation assay (RIPA) buffer (Cell Signaling, Danvers, MA, USA) in the presence of a protease and phosphatase inhibitor cocktail (Thermo Fisher Scientific). […] The results were analyzed using the ImageJ densitometry system. […]
# The organotypic slice cultures were exposed to 6-OHDA at the tissue surface on DIV 8 to avoid apoptosis due to nutrients and to induce proper maturation. […] Intracellular ATP was quantified using the CellTiter-Glo Luminescent Viability Kit (Promega Corporation, Madison, WI, USA), according to the manufacturer's protocol. Luminescence was measured using a SpectraMax L Microplate Reader (Molecular Devices).
substance,measurement,setting,value
"humanin (MAPRGFSCLLLLTSEIDLPVKRRA; Humanin; UniProt Q8IVG9 1-24, looked up) [HN, mitochondria-derived peptide encoded by the mitochondrial genome, synthesized by Fmoc-based SPPS at GL Biochem]",induction of intracellular humanin by HN peptide,[1],abolished
same,intracellular humanin,[2],upregulated intracellular humanin
same,"mitochondrial biogenesis markers PGC-1α and NRF1, western blot","rat organotypic slices; HN pre-treatment 1 μM, 24 h",stimulated mitochondrial biogenesis
same,ATP levels (CellTiter-Glo luminescence),"rat organotypic slices; HN pre-treatment 24 h, 0.1 or 1 μM",effectively inhibited significant depletion of ATP levels
